One assay deals with T1, rNTS1 receptor (Rattus norvegicus, UniProt P20789).
T1 construct: expressed in transfected cells
Briefly: Calcium mobilization assay for NTS1 receptor (FLIPR assay, FlexStation II). It counts as cell-based. Conditions: for Kb: antagonism of NT induced calcium release, ± SEM, read-out: NTS1 Ke. As for the experimental part: (§1) The binding affinities of the test compounds for the rNTS1 and rNTS2 receptors listed in Tables 1 through 4 were determined using previously reported competitive binding assays^49. […] The cells used in the binding assay were CHO-kl cells (American Type Culture Collection) engineered to over-express either the rNTS1 or rNTS2 receptor. Measures of functional agonism and antagonism were obtained by measuring changes in intensity of a calcium-sensitive fluorescent dye as an indirect measure of changes in internal calcium concentrations. These measurements were performed using a FLIPR Tetra (NTS2) or a FlexStation II plate reader for NTS1 (Molecular Devices) and were analyzed using GraphPad Prism software.
CHO-kl-rNTS1 cells were maintained in DMEM/F12 medium supplemented with 10% fetal bovine serum (Gibco), 100 U/ml penicillin/100 ug/ml streptomycin, 100 ug/ml normocin (Invivogen), and 250 ug/ml geneticin. For calcium mobilization assays, cells were plated at 30,000 cells/well in black, clear-bottom 96-well plates 24 hrs before the assay and incubated at 37° C., 5% CO2. Prior to the assay, Calcium 5 dye (Molecular Devices) was reconstituted according to manufacturer instructions. The reconstituted dye was diluted 1:40 in assay buffer (lx HBSS, 20 mM HEPES, and 2.5 mM Probenicid (Sigma), pH 7.4). Growth media was removed and 200 ul of this diluted dye was added to each well. Plates were incubated for 45 min at 37° C., 5% CO2 after dye addition. […] Full-log serial dilutions of the test compounds were made at 10× the desired final concentration in 1% DMSO assay buffer and warmed to 37° C. After the pre-treatment incubation, fluorescence intensity was measured on a FlexStation II fluorometric imaging plate reader (Molecular Devices). Relative fluorescence units (RFU) were measured before (20 readings) and after (40 readings) the agonist compound addition for a total 60 second read time (Excitation=485 nm, Emission=525 nm, cutoff=515 nm). For antagonist assays, cells were treated with Calcium dye for 45 min at 37° C., 5% CO2 as with the agonist assays. Then the test antagonist compounds were added in 1% DMSO in assay buffer and the plate was incubated for 15 min at 37° C., 5% CO2.
(§2) To determine EC50, IC50, and Ke values, data were fit to a three-parameter logistic equation using GraphPad Prism software. Ki values for radioligand binding assays were determined from ICso values using the equation of Cheng and Prusoff. All data are from at least three independent experiments run in duplicate wells.

In assay [1] the target is T2, rNTS2 receptor (Rattus norvegicus, UniProt Q63384).
T2 construct: expressed in transfected cells
T2 sequence (Q63384 1-416): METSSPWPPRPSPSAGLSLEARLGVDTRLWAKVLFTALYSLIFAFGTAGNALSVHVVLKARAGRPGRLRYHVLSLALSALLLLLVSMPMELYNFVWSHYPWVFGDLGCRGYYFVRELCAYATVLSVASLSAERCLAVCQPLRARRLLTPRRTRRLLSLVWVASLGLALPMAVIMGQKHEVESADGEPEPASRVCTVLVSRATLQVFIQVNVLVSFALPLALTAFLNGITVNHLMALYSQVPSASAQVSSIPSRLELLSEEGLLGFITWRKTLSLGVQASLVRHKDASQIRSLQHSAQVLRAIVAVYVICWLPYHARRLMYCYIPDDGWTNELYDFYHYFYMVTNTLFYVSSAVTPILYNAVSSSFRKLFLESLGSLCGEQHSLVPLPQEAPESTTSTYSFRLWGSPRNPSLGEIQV
Put plainly: Calcium mobilization assay for NTS2 receptor (FLIPR Tetra). It counts as cell-based. Conditions: for NTS2 Emax % of 5b / EC50: FLIPR assay, ± SEM; for NTS2 Emax % of 5b: calcium release relative to 5b; for EC50: compound induced calcium release, CHO-kl-rNTS2 cells; for activity in NTS2 FLIPR assay: calcium release. As for the experimental part:
as §1
CHO-kl-rNTS2 cells were maintained in DMEM/F12 supplemented with 10% FBS, pen/strep, 100 μg/ml normocin, and 400 μg/ml geneticin. For calcium mobilization assays, cells were plated at 25,000 cells/well in black, clear-bottom 96-well plates 24 hrs before the assay and incubated at 37° C., 5% CO2. 100 μl reconstituted Calcium 5 dye (Molecular Devices, diluted 1:20 in assay buffer (1×HBSS, 20 mM HEPES, 2.5 mM Probenicid, pH 7.4)) was added per well and plates were incubated for 45 min at 37° C., 5% CO2. […] Full-log serial dilutions of the test compounds were made at 10× the desired final concentration in 1% DMSO assay buffer and warmed to 37° C. After the pre-treatment incubation, fluorescence intensity was measured on a FLIPR Tetra fluorometric imaging plate reader (Molecular Devices). Relative Fluorescence Units (RFUs) were measured every second for 100 seconds (14 readings before compound addition to establish baseline fluorescence, 85 after) Exposure time 0.53 s, Gain=2000, Excitation intensity=30%, Gate open=10%. For antagonist assays, 1/10 volume of 10×concentration of the test compound dilutions in 10% DMSO in assay buffer was added to cells in lieu of the 10% DMSO only in assay buffer for the pre-treatment.
as §2

The target of assay [2] is T2, rNTS2 receptor. Briefly: 125I-NT competitive binding assay, whole CHO-kl cells over-expressing rNTS2. To be noted: competition with 125I-NT; ± SEM; read-out: 125I-NT Binding NTS2 Ki. How it is done:
as §1
Briefly, cells were plated at 100,000 cells/well in 24-well plates in complete DMEM/F12 medium supplemented with 10% fetal bovine serum, 100 units of penicillin/mL, 100 μg of streptomycin/mL, 0.1 mg/mL of normocin, and 250 μg/mL geneticin. Cells were incubated at 37° C. with 5% CO2 and 95% humidity for 48 hrs. […] Cells were washed twice in Earle's buffer, extracted in 1 ml 0.1N NaOH and counted in a Packard Cobra II Gamma Counter for 1 minute.
as §2

Values joined by “and” are separate entries in the source; they are usually repeats but may differ in a detail not shown here. Equal values may be shown once.

This note sets out measurements from patent US20170174633A1 (RESEARCH TRIANGLE INSTITUTE, priority 2014, published 2017).

T1 sequence (P20789 whole entry): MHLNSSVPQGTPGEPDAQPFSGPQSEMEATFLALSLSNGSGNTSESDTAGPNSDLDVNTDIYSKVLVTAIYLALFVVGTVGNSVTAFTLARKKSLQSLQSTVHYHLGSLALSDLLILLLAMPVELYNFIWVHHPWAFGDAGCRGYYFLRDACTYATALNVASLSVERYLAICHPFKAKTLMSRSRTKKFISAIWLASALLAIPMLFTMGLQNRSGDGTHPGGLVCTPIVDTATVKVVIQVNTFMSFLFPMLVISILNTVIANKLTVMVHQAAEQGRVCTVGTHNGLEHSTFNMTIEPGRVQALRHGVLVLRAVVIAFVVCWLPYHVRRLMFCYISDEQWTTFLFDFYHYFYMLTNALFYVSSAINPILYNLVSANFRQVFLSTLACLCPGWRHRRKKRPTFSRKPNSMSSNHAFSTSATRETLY

For `COc1cccc(OC)c1-c1cc(C(=O)NC2(C(=O)O)CCCCCC2)nn1-c1ccnc2cc(Cl)ccc12` [20b, 1-({[1-(7-Chloroquinolin-4-yl)-5-(2,6-dimethoxyphenyl)-1H-pyrazol-3-yl]carbonyl}amino)cyclo-heptanecarboxylic Acid], the Kb on rNTS1 receptor worked out at 42 ± 6 nM. In addition, on rNTS2 receptor [1], the “NTS2 Emax % of 5b” value is recorded as 89 ± 5 % of 5b and the EC50 was determined as 21 ± 5 nM. Moreover, the Ki on rNTS2 receptor [2] amounted to 170 nM.
On to `COc1ccc(-c2cc(C(=O)N[C@H](C(=O)O)C3CCCCC3)nn2-c2ccnc3cc(Cl)ccc23)c(OC)c1` [16b, (2S)-({[1-(7-Chloroquinolin-4-yl)-5-(2,4-dimethoxyphenyl)-1H-pyrazol-3-yl]carbonyl}-amino)-(cyclohexyl)ethanoic Acid], for which, at rNTS2 receptor [1], the “NTS2 Emax % of 5b” value was 12 ± 3 % of 5b and the EC50 was determined as 382 ± 33 nM. Besides, the Ki at rNTS2 receptor [2] was 1580 ± 505 nM.
As to `COc1cccc(OC)c1-c1cc(C(=O)N[C@H](C(=O)O)C2CCCCC2)nn1-c1ccnc2cc(Cl)ccc12` [14b, (2S)-({[1-(7-Chloroquinolin-4-yl)-5-(2,6-dimethoxyphenyl)-1H-pyrazol-3-yl]carbonyl}amino)-(cyclohexyl)ethanoic Acid], the Kb at rNTS1 receptor amounted to 23 ± 6 nM. Besides, at rNTS2 receptor [1], the “NTS2 Emax % of 5b” value was 86 % of 5b and 86 ± 3 % of 5b; the EC50 came out at 217 ± 19 nM. Further, the Ki at rNTS2 receptor [2] is 644 nM.
As to `COc1ccc(OC)c(-c2cc(C(=O)N[C@H](C(=O)O)C3CCCCC3)nn2-c2ccnc3cc(Cl)ccc23)c1` [15b, (2S)-({[1-(7-chloroquinolin-4-yl)-5-(2,5-dimethoxyphenyl)-1H-pyrazol-3-yl]carbonyl}amino) (cyclohexyl)ethanoic acid], the Kb at rNTS1 receptor stood at 1280 ± 544 nM. For the same compound, on rNTS2 receptor [1], the “NTS2 Emax % of 5b” value was 19 ± 3 % of 5b and the EC50 was found to be 216 ± 29 nM. The Ki at rNTS2 receptor [2] came to 604 ± 141 nM.
With `COc1cccc(OC)c1-c1cc(C(=O)NC2(C(=O)O)C3CC4CC(C3)CC2C4)nn1-c1ccnc2cc(Cl)ccc12` (centres unmarked) [5a, Meclinertant, reference compound], the “NTS2 Emax % of 5b” value at rNTS2 receptor [1] was 100 % of 5b and 100 ± 3 % of 5b and 100 ± 15 % of 5b.
For the compound `O=C(N[C@H](C(=O)O)C1CCCCC1)c1cc(-c2c(F)cccc2F)n(-c2ccnc3cc(Cl)ccc23)n1` [18b, (2S)-({[1-(7-Chloroquinolin-4-yl)-5-(2,6-difluorophenyl)-1H-pyrazol-3-yl]carbonyl}amino) (cyclohexyl)ethanoic Acid], on rNTS2 receptor [1], the “NTS2 Emax % of 5b” value was 15 ± 3 % of 5b and the EC50 amounted to 166 ± 3 nM. The Ki on rNTS2 receptor [2] was found to be 1000 ± 227 nM.
On to `COc1ccccc1-c1cc(C(=O)N[C@H](C(=O)O)C2CCCCC2)nn1-c1ccnc2cc(Cl)ccc12` [17b, (2S)-({[1-(7-chloroquinolin-4-yl)-5-(2-methoxyphenyl)-1H-pyrazol-3-yl]carbonyl}amino)(cyclohexyl) ethanoic acid], for which, on rNTS1 receptor, the Kb came to 1680 ± 527 nM. For the same compound, at rNTS2 receptor [1], the “NTS2 Emax % of 5b” value is listed as 25 ± 2 % of 5b and the EC50 came to 258 ± 14 nM. Further, at rNTS2 receptor [2], the Ki was found to be 1420 ± 468 nM.
In the case of `COc1ccccc1-c1cc(C(=O)N[C@H](C(=O)O)C2CCCCC2)nn1-c1cccc2ccccc12` [25b, (2S)-Cyclohexyl({[5-(2-methoxyphenyl)-1-naphthalen-1-yl-1H-pyrazol-3-yl]carbonyl}amino) ethanoic Acid], the Kb on rNTS1 receptor came out at 1400 ± 330 nM. In addition, at rNTS2 receptor [1], the “NTS2 Emax % of 5b” value is 18 ± 2 % of 5b and the EC50 is 229 ± 8 nM. Also, the Ki on rNTS2 receptor [2] was 2690 ± 639 nM.
`COc1ccccc1-c1cc(C(=O)NC2(C(=O)O)CCCCC2)nn1-c1cccc2ccccc12` [27b, 1-({[5-(2-Methoxyphenyl)-1-naphthalen-1-yl-1H-pyrazol-3-yl]carbonyl}amino)cyclohexane-carboxylic Acid]: the Kb at rNTS1 receptor worked out at 7380 ± 1130 nM. Also, at rNTS2 receptor [1], the “NTS2 Emax % of 5b” value is 18 % of 5b and 18 ± 2 % of 5b; the EC50 is 108 ± 8 nM. Moreover, the Ki on rNTS2 receptor [2] stood at 694 ± 178 nM.
`COc1cccc(OC)c1-c1cc(C(=O)NC2(C(=O)O)CCCCC2)nn1-c1ccnc2cc(Cl)ccc12` [21b, 1-({[1-(7-Chloroquinolin-4-yl)-5-(2,6-dimethoxyphenyl)-1H-pyrazol-3-yl]carbonyl}amino)cyclo-hexanecarboxylic Acid]: the Kb on rNTS1 receptor came to 157 ± 45 nM. Also, on rNTS2 receptor [1], the “NTS2 Emax % of 5b” value is 78 % of 5b and 78 ± 7 % of 5b; the EC50 is 29 ± 2 nM. Also, at rNTS2 receptor [2], the Ki was found to be 151 nM.
In the case of `COc1cccc(OC)c1-c1cc(C(=O)N[C@H](C(=O)O)C2CCCCC2)nn1-c1ccc(F)cc1` [28b, (2S)-Cyclohexyl({[5-(2,6-dimethoxyphenyl)-1-(4-fluorophenyl)-1H-pyrazol-3-yl]carbonyl}amino)ethanoic Acid], the Kb at rNTS1 receptor amounted to 3340 ± 549 nM. In addition, at rNTS2 receptor [1], the “NTS2 Emax % of 5b” value is 22 ± 5 % of 5b and the EC50 turned out to be 271 ± 24 nM. The Ki on rNTS2 receptor [2] is 622 ± 245 nM.
In the case of `COc1cccc(OC)c1-c1cc(C(=O)NC2(C(=O)O)CCCCC2)nn1-c1cccc2ccccc12` [26b, 1-({[5-(2,6-Dimethoxyphenyl)-1-naphthalen-1-yl-1H-pyrazol-3-yl]carbonyl}amino)cyclohexane-carboxylic Acid], the Kb at rNTS1 receptor turned out to be 230 ± 79 nM. Moreover, at rNTS2 receptor [1], the “NTS2 Emax % of 5b” value is 35 % of 5b and 35 ± 1 % of 5b; the EC50 stood at 18 ± 1.6 nM. Moreover, the Ki on rNTS2 receptor [2] amounted to 116 ± 39 nM.
For `CC[C@H](C)[C@H](NC(=O)[C@H](Cc1ccc(O)cc1)NC(=O)[C@@H]1CCCN1C(=O)[C@H](CCCNC(=N)N)NC(=O)[C@@H](N)CCCNC(=N)N)C(=O)N[C@@H](CC(C)C)C(=O)O` [compound 1, Arg-Arg-Pro-Tyr-Ile-Leu, reference compound], the “activity in NTS2 FLIPR assay” value at rNTS2 receptor [1] is listed as “neither NT nor the NT(8-13) fragment (1) showed any calcium release”.
Turning to `CCc1c(C(=O)N[C@H](C(=O)O)C2CCCCC2)nn(-c2ccnc3cc(Cl)ccc23)c1-c1c(OC)cccc1OC` [19b, (2S)-({[1-(7-Chloroquinolin-4-yl)-5-(2,6-dimethoxyphenyl)-4-ethyl-1H-pyrazol-3-yl]carbonyl}amino)(cyclohexyl)ethanoic Acid], on rNTS2 receptor [1], the “NTS2 Emax % of 5b” value is 15 % of 5b and 15 ± 1 % of 5b.
Consider `COc1cccc(OC)c1-c1cc(C(=O)NC2C3CC4CC(C3)CC2C4)nn1-c1ccnc2cc(Cl)ccc12` (centres unmarked) [compound 13, 1-(7-chloroquinolin-4-yl)-5-(2,6-dimethoxyphenyl)-N-tricyclo[3.3.1.13,7]dec-2-yl-1H-pyrazole-3-carboxamide], for which, on rNTS1 receptor (agonist and antagonist mode versus NT), the “activity in NTS1 FLIPR assay” value was “inactive”. In addition, the “activity in NTS2 FLIPR assay” value at rNTS2 receptor [1] is “inactive”.

One may read the EC50 as the concentration that produces a half-maximal response. By Ki is commonly meant a measure of affinity in units of concentration, obtained from inhibition or displacement.
